In one experiment the test system is S. aureus ATCC 25923. In words: MIC, broth microdilution. It counts as cell-based, Staphylococcus aureus. From the text:
Strain representatives of six globally spread clones/lineages of MRSA were used in this study to test the antimicrobial activity of the N,O-acetal derivatives against MRSA: NY/Japan-USA100/ST5-SCCmecII (strain CR15-071), USA300/ST8-SCCmecIV (strain USA300-0114), USA400/ST1-SCCmecIV (strain USA400-0051), Brazilian epidemic clone-BEC/ST239-SCCmecIII (strain BMB9393), pediatric clone-USA800/ST5-SCCmecIV (strain USA800-0179), and OSPC-USA1100/ST30-SCCmecIV (strain 07-040). The S. aureus ATCC 25923 was used as a control for the experiment of drug susceptibility. […] For biofilm production, tryptic soy broth (TSB; BD, Franklin Lakes, NJ, USA) was supplemented with 1% (w/v) glucose (TSB-Glu). Tryptic soy agar (TSA; BD) was used for bacterial growth. The Mueller-Hinton broth (MHB; BD) and Mueller-Hinton agar (MHA; BD) was used for susceptibility tests. All strains were maintained in 10% (v/v) glycerol stocks and stored at − 80 °C.
The antibacterial activity of 6a and its derivatives 7a, 7b, and 7c was tested as previously described using paper disks impregnated with each compound[13]. The derivatives were also analyzed quantitatively using microdilution assays in 96-well inert polystyrene microtiter plates (Nuclon; Nalge Nunc International, Rochester, NY, USA) to determine the minimal inhibitory concentration (MIC)[14]. Biological control, as well as growth conditions, were performed following CLSI recommendation[15],[16]. […] Controls were also performed using 2% (v/v) DMSO only.
For orientation: Broth dilution looks for growth in wells or tubes with falling amounts of substance.

In a further experiment the test system is MRSA BEC (BMB9393). In words: microbe, parasite or virus in culture. It counts as cell-based, Staphylococcus aureus. How it is done: (§1) For biofilm production, tryptic soy broth (TSB; BD, Franklin Lakes, NJ, USA) was supplemented with 1% (w/v) glucose (TSB-Glu). Tryptic soy agar (TSA; BD) was used for bacterial growth. The Mueller-Hinton broth (MHB; BD) and Mueller-Hinton agar (MHA; BD) was used for susceptibility tests. All strains were maintained in 10% (v/v) glycerol stocks and stored at − 80 °C.
(§2) The derivatives were also analyzed quantitatively using microdilution assays in 96-well inert polystyrene microtiter plates (Nuclon; Nalge Nunc International, Rochester, NY, USA) to determine the minimal inhibitory concentration (MIC)[14]. Biological control, as well as growth conditions, were performed following CLSI recommendation[15],[16]. […] Controls were also performed using 2% (v/v) DMSO only.

Experiment [1] has as its system MRSA NY/Japan-USA100 (CR15-071). Nature of the experiment: MIC, broth microdilution. The class given is cell-based, Staphylococcus aureus. How it is done:
as §1, §2

Experiment [2] relates to MRSA OSPC-USA1100 (07-040). Nature of the experiment: MIC, broth microdilution. The class given is cell-based, Staphylococcus aureus. How it is done: as §1, §2
The subject of experiment [3] is MRSA Pediatric-USA800 (USA800-0179). In words: MIC, broth microdilution. It counts as cell-based, Staphylococcus aureus. How it is done: as §1, §2
For experiment [4], the system named is MRSA USA300 (USA300-0114). In words: MIC, broth microdilution. The class given is cell-based, Staphylococcus aureus. The protocol: as §1, §2
The test system of experiment [5] is MRSA USA400 (USA400-0051). In words: MIC, broth microdilution. The class given is cell-based, Staphylococcus aureus. How it is done:
as §1, §2

Experiment [6] has as its system MRSA ST239-SCCmecIII (BMB9393). Nature of the experiment: Disk diffusion test. It counts as cell-based, Staphylococcus aureus. (Agar diffusion results depend on both activity and mobility in agar.)
Experiment [7] concerns MRSA ST5-SCCmecII (USA100). In words: Disk diffusion test. The class given is cell-based, Staphylococcus aureus.
The subject of experiment [8] is MRSA ST8-SCCmecIV (USA300). Nature of the experiment: Disk diffusion test. The class given is cell-based, Staphylococcus aureus.
In experiment [9] the test system is MRSA (ST1-SCCmecIV) (USA400). Nature of the experiment: Disk diffusion test. It counts as cell-based, Staphylococcus aureus.
Experiment [10] relates to MRSA ST30-SCCmecIV (USA1100). Nature of the experiment: Disk diffusion test. The class given is cell-based, Staphylococcus aureus.
The test system of experiment [11] is MRSA strain BMB9393 biofilm. In words: Biofilm development on polystyrene, crystal violet. Conditions: 1/4MIC (7b 32 µg/mL, 7c 16 µg/mL); strain BMB9393, 24 h, crystal violet. It counts as cell-based, Staphylococcus aureus. How it is done: Biofilms were formed on polystyrene surfaces using the BEC representative, strain BMB9393. […] The same volume of the bacterial culture in TSB-Glu (37 °C/18 h; at 250 rpm) diluted 1/100 in the same broth was added to the wells. After incubation (37 °C/24 h), supernatants were gently removed, rinsed with distilled water, and treated with crystal violet solution as described. […] Eight independent tests with three replicates each were performed. Controls were inoculated with the same bacterial inoculum but using only TSB-Glu with 2% (v/v) DMSO, final concentration.

Another experiment has as its system fnbA. In words: Real-time RT-qPCR of biofilm-associated genes. The class given is cell-based, Staphylococcus aureus.
A further experiment relates to spa. Nature of the experiment: Real-time RT-qPCR of biofilm-associated genes. The class given is cell-based, Staphylococcus aureus. Background: Quantitative PCR measures a nucleic acid by following its amplification.
The next experiment relates to psmα3. Nature of the experiment: Real-time RT-qPCR of biofilm-associated genes. It counts as cell-based, Staphylococcus aureus.
The test system of the next experiment is rnaIII. Nature of the experiment: Real-time RT-qPCR of global regulators. It counts as cell-based, Staphylococcus aureus.
The test system of another experiment is sarA. Nature of the experiment: Real-time RT-qPCR of global regulators. The class given is cell-based, Staphylococcus aureus.
In the next experiment the test system is sigB. Nature of the experiment: Real-time RT-qPCR of global regulators. It counts as cell-based, Staphylococcus aureus.
Another experiment deals with atlA. In words: Autolytic system: atlA real-time qRT-PCR. The class given is cell-based, Staphylococcus aureus.
The subject of experiment [12] is MRSA strain BMB9393 biofilm. In words: Confocal laser scanning microscopy (CLSM) of biofilm. The class given is cell-based, Staphylococcus aureus. Conditions: 1/4MIC (7b 32 µg/mL, 7c 16 µg/mL); SYTO 9; compared with untreated biofilms. How it is done:
For CLSM experiments, after 24 h of incubation, the supernatant containing planktonic cells was gently removed, and biofilm treated with 25 nM SYTO 9 DNA-intercalating stain (Invitrogen; Carlsbad, CA, EUA), as previously described. Before visualization, SYTO 9 solution was removed and the material visualized using a confocal laser scanning microscope (Model LSM510 Carl Zeiss Meditec; Jena, Germany). The microscope was configured with the argon laser (458 nm/477 nm/488 nm/514 nm). The images were randomly captured with the […]. Controls were performed using 2% (v/v) DMSO only (final concentration). Three independent experiments were performed in quadruplicate.

The mark [13] stands for this setting: Table 2, used for SI, strain not given, values of 6a-7c equal those for BEC (BMB9393).

The structures appear in SMILES notation. Values after ≈ are worked out from the molar mass of the structure shown. Values joined by “and” are separate entries in the source; they are usually repeats but may differ in a detail not shown here. Equal entries are not always repeated. Where two headings read alike, the source gives them in different places.

For `CCOCNC1=CC(=O)c2ccccc2C1=O` [7b, 2-(ethoxymethyl)-amino-1,4-naphthoquinone], the MIC was found to be 64 mg/L (≈ 277 µM) with S. aureus ATCC 25923 (Staphylococcus aureus, ATCC25923, control strain S. aureus ATCC 25923, read-out: MIC); 128 mg/L (≈ 554 µM) against MRSA BEC (BMB9393) (Staphylococcus aureus, MRSA); 128 mg/L (≈ 554 µM) against MRSA BEC (BMB9393) (setting [13]); 128 mg/L (≈ 554 µM) in experiment [1] (Staphylococcus aureus); 256 mg/L (≈ 1110 µM) in experiment [2] (Staphylococcus aureus, MRSA); 256 mg/L (≈ 1110 µM) in experiment [3] (Staphylococcus aureus). Also, the MIC in experiment [4] (Staphylococcus aureus) came out at 64 mg/L (≈ 277 µM); in experiment [5] (Staphylococcus aureus), 128 mg/L (≈ 554 µM). The Inhibition zone in [6] turned out to be 10±1.0 mm; in experiment [7], 13±2.0 mm; in [8] it was 12±2.0 mm; in experiment [9] it was 13±1.0 mm; in [10], 13±1.0 mm. Besides, the “Reduction of accumulated biofilm matrix” value in experiment [11] was 87.4% ± 1.9% and 88%. For the same compound, the “Reduction of fnbA expression” value with fnbA is 89.3% ± 1.5%. In addition, in the experiment on spa, the “Reduction of spa expression” value was found to be 95.4 ± 0.9%. In addition, in the experiment on psmα3, the “Reduction of psmα3 expression” value is reported as 97.75 ± 0.6%. Moreover, the “Reduction of RNAIII transcripts” value with rnaIII stood at 88.0 ± 1.1%. Further, the “Reduction of sarA gene expression” value with sarA was determined as 65.5 ± 6.0%. In the experiment with sigB, the “Increase of sigB transcripts” value is listed as “did not affect”. In addition, the “Increase in atlA transcripts” value in the experiment on atlA amounted to 3.5 times. Moreover, the “Biofilm accumulation by CLSM” value in [12] is on record as “decrease biofilm accumulation massively”. Also, the “Reduction of hla expression” value in the experiment with hla was 90.0 ± 0.6%.
For the compound `C#CCOCNC1=CC(=O)c2ccccc2C1=O` [7c, 2-(propynyloxymethyl)-amino-1,4-naphthoquinone], the MIC was found to be 16 mg/L (≈ 66.3 µM) against S. aureus ATCC 25923 (control strain S. aureus ATCC 25923); 64 mg/L (≈ 265 µM) against MRSA BEC (BMB9393) (setting [13]); 64 mg/L (≈ 265 µM) against MRSA BEC (BMB9393) (broth microdilution, BEC (BMB9393)); 128 mg/L (≈ 531 µM) in [1] (broth microdilution, NY/Japan-USA100 (CR15-071)); 128 mg/L (≈ 531 µM) in experiment [2] (broth microdilution, OSPC-USA1100 (07-040)); 64 mg/L (≈ 265 µM) in experiment [3] (broth microdilution, Pediatric-USA800 (USA800-0179)). The MIC was 64 mg/L (≈ 265 µM) in [4] (broth microdilution, USA300 (USA300-0114)) and 64 mg/L (≈ 265 µM) in experiment [5] (broth microdilution, USA400 (USA400-0051)). Besides, the Inhibition zone in [6] is reported as 13±1.0 mm; in experiment [7] it was 12±1.5 mm; in experiment [8], 13±1.3 mm; in experiment [9], 11±0.8 mm; in experiment [10], 15±0.8 mm. Also, the “Reduction of accumulated biofilm matrix” value in experiment [11] was 75.6% ± 3.7% and 75%. The “Reduction of fnbA expression” value with fnbA is given as 24.64% ± 3.5%. Further, the “Reduction of spa expression” value with spa was determined as 74.82 ± 4.9%. For the same compound, the “Reduction of psmα3 expression” value with psmα3 stood at 87.73 ± 4.3%. Also, the “Reduction of RNAIII transcripts” value with rnaIII stood at 70.6 ± 2.2%. Moreover, the “Reduction of sarA gene expression” value in the experiment with sarA was “no important effect”. Moreover, in the experiment on sigB, the “Increase of sigB transcripts” value worked out at 57.22 ± 5.2%. For the same compound, in the experiment with atlA, the “Increase in atlA transcripts” value is given as “three-fold increase”. Further, in experiment [12], the “Biofilm accumulation by CLSM” value is “decrease biofilm accumulation massively”. The “Reduction of hla expression” value in the experiment on hla came to 86.5 ± 1.0%.

These data come from paper PMC7661526, “Antibiofilm effects of N,O-acetals derived from 2-amino-1,4-naphthoquinone are associated with downregulation of important global virulence regulators in methicillin-resistant Staphylococcus aureus” (Scientific Reports, 2020).
